How the values were obtained:
Format in all cases: cell-based
[1] = tested on: S. aureus
[2] = tested on: Prevotella bivia
[3] = tested on: Peptostreptococcus anaerobius
[4] = tested on: TSST-1 production by S. aureus
[5] = tested on: Vaginal Microflora

potassium bisulfite
OD540 (Percentage of Control) [1]: 91 Percentage of Control

CCCOC(=O)c1cc(O)c(O)c(O)c1 [Propylgallate, propyl gallate]
OD540 (Percentage of Control) [1]: 74 Percentage of Control

thiodipropionic acid
OD540 (Percentage of Control) [1]: 99 Percentage of Control

delta-tocopherol
OD540 (Percentage of Control) [1]: 112 Percentage of Control

CCCCCCCCCCCC(=O)OCCOCCOCCOCCOCCOCCOCCOCCOCCOCCOCCOCCOCCOCCOCCOCCOCCOCCOCCOCCOCC(OCCOCCOCCOCCOCCOCCOCCOCCOCCOCCOCCOCCOCCOCCOCCOCCOCCOCCOCCOCCO)C1OCC(OCCOCCOCCOCCOCCOCCOCCOCCOCCOCCOCCOCCOCCOCCOCCOCCOCCOCCOCCOCCO)C1OCCOCCOCCOCCOCCOCCOCCOCCOCCOCCOCCOCCOCCOCCOCCOCCOCCOCCOCCOCCO (centres unmarked) [Polysorbate 20]
growth of P. bivia [2]: suppressed | growth of P. anaerobius [3]: suppressed

O=C1O[C@H]([C@@H](O)CO)C(O)=C1O [Ascorbic acid, ascorbic acid]
effect on bacterial toxin production (in words) [4]: reduced toxin production | reduction of toxin production [4]: up to 40% | OD540 (Percentage of Control) [1]: 104 Percentage of Control | Staphylococcal / bacterial growth (inhibition, in words) [1]: does not inhibit Staphylococcal growth

Cn1c(=O)c2c(ncn2C)n(C)c1=O [Caffeine, caffeine]
effect on bacterial toxin production (in words) [4]: reduced toxin production | OD540 (Percentage of Control) [1]: 93 Percentage of Control

CC(=O)N[C@@H](CS)C(=O)O [N-acetyl cysteine, N-acetylcysteine]
effect on bacterial toxin production (in words) [4]: reduced toxin production | OD540 (Percentage of Control) [1]: 89 Percentage of Control

N[C@@H](CS)C(=O)O [Cysteine, cysteine]
effect on bacterial toxin production (in words) [4]: reduced toxin production | OD540 (Percentage of Control) [1]: 105 Percentage of Control

beta-mercaptoethanol
OD540 (Percentage of Control) [1]: 93 Percentage of Control

sodium bisulfite
OD540 (Percentage of Control) [1]: 64 Percentage of Control

OCC(O)CO [glycerin]
growth of the isolates tested [5]: did not effect the growth | growth of P. bivia [2]: inhibited

Source: patent US6548552B1 (priority 1997, dated 2003)
